According to publication PMC8151276, “An Integrated Approach toward NanoBRET Tracers for Analysis of GPCR Ligand Engagement” (Molecules, 2021):

Experiments:
RXFP4 = target: T1, RXFP4 (Homo sapiens, UniProt Q8TDU9); assay: NanoBRET screen HiBiT-RXFP4 in HEK293; assay type: binding; settings: RXFP4
T1 construct: purchased Promega (in-house HiBiT-GPCR construct library, NanoBRET)
Protocol: (§1) Each tracer candidate was screened across the entire library of HiBiT-GPCR constructs using NanoBRET as the detection modality. As depicted in Figure 4A, the specificity of interactions was evaluated through decrease in BRET due to competitive displacement of a bound tracer by excess parental compound. Each tracer was analyzed for binding to each HiBiT-GPCR fusion in the absence and in the presence of competing parental compound. Briefly, HEK293 cells were transfected with HiBiT-GPCR constructs diluted into promoterless DNA to reduce expression and maximize translocation to the cell surface. Each tracer candidate was then screened at concentrations of 1 μM and 0.1 μM across cells expressing these fusions. Cells were treated for 1.5 h with tracer either alone or in the presence of 20 μM competing parental compound (i.e., control). BRET was measured upon addition of purified LgBiT and subsequent complementation with HiBiT genetically fused to a GPCR. The specificity of interactions was assessed through a decrease in BRET signal due to competitive displacement of the bound tracer. To further gauge the robustness of these interactions, the fold response over the control (i.e., BRETtracer/BRETcontrol) was calculated. We chose a 1.5-fold response, which translates to ≥7-fold signal over noise as the minimal threshold required to score an interaction as positive. […]. Below we highlight the screening results obtained for our exemplary fluorescent tracers based on Clozapine, Amitriptyline and AZD1283.
(§2) HiBiT-GPCR DNA constructs were diluted in 10 mM Tris pH 8 to a final concentration of 0.01 μg/μL, arrayed in 96-well plates and stored at −20 °C. For transfection, HEK293 cells were suspended in Opti-MEM (without phenol red) supplemented with 2% fetal bovine serum (Seradigm) and 100 units/mL penicillin–streptomycin (Gibco) at a final concentration of 220,000 cells/mL and dispensed into white 96-well plates at 90 μL/well. Subsequent transfections and screens were carried using an Agilent Bravo Automated Liquid Handling Platform. First, the 96-well HiBiT DNA arrays were diluted 25-fold in Opti-MEM (without serum or phenol red) to a final concentration of 0.0004 μg/μL and 20 μL of the diluted DNAs were transferred into new 96-well plates. Next, promoterless carrier DNA (1 μg/μL) was diluted 25-fold (0.04 μg/μL) and then dispensed into the diluted arrays at 20 μL/well. Following brief mixing, Viafect transfection reagent (Promega) diluted 16-fold into Opti-MEM was dispensed into the plates at 40 μL/well. After mixing by pipetting, plates were incubated for 10 min on the pipetting station deck. The DNA-transfection reagent complexes were then added to plates containing cells. To facilitate the screen, 10 μL of DNA-transfection reagent complexes were added in duplicates to the top 4 and bottom 4 rows, resulting in two identical 48-well arrays per plate. Plates with transfected cells were incubated for 18–20 h at 37 °C/5% CO2. A screen of each tracer across the entire library using two different concentrations requires duplicate plates of transfected cells. Depending on the number of tracers being screened, transfections can be scaled up using the same ratios. The next day, for each tracer, four 20× screening solutions in tracer dilution buffer (Promega) were prepared: two duplicates at final concentration of 20 μM and two duplicates at a final concentration of 2 μM. A competing unmodified compound was added to one of each duplicate at a final concentration of 400 μM. The four resulting solutions were diluted 4-fold in Opti-MEM without serum or phenol red to generate 5× solutions (5 µM and 0.5 µM tracer +/− 100 μM competing compound). To screen the library, a BioTek MultiFlo FX liquid dispenser was used to dispense 22.5 µL of tracer solution to the top 4 rows and 22.5 µL tracer + competing compound solution to the 4 bottom rows. Plates were briefly mixed on an orbital shaker and incubated for 1.5 h at room temperature. […]

AVPR1B = target: T2, AVPR1B (Homo sapiens, UniProt P47901); assay: NanoBRET screen HiBiT-AVPR1B in HEK293; assay type: binding; settings: AVPR1B
T2 construct: purchased Promega (in-house HiBiT-GPCR construct library, NanoBRET)
T2 sequence (P47901 1-424): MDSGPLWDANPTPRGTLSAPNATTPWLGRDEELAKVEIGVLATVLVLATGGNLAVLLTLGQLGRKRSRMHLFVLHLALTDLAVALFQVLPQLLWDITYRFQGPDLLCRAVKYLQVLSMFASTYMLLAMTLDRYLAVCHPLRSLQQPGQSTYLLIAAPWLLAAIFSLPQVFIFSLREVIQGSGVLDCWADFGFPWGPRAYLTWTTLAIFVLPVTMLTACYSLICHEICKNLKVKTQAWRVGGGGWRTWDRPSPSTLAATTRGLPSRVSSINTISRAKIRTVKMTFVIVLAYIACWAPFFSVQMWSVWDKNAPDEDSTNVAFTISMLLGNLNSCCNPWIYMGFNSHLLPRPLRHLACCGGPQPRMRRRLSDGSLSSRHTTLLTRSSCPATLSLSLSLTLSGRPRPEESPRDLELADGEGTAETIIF
Protocol: as §1, §2

T1 sequence (Q8TDU9 whole entry): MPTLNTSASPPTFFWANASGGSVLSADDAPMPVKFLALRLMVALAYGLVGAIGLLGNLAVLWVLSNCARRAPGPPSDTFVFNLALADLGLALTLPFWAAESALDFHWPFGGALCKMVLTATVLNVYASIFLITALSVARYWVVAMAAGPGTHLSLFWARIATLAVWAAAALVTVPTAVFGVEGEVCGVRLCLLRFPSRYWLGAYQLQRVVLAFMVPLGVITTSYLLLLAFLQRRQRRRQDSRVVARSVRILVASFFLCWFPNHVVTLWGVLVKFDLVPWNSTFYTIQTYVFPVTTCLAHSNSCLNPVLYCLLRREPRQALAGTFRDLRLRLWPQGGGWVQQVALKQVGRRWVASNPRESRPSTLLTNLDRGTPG

NanoBRET Fold Response (RXFP4; 0.1μM tracer)	NanoBRET Fold Response (RXFP4; 1μM tracer)	NanoBRET Fold Response (AVPR1B; 0.1μM tracer)	NanoBRET Fold Response (AVPR1B; 1μM tracer)	SMILES	NanoBRET Fold Response (RXFP4; 0.1μM)	NanoBRET Fold Response (RXFP4; 1μM)	NanoBRET Fold Response (AVPR1B; 0.1μM)	NanoBRET Fold Response (AVPR1B; 1μM)
–	–	–	–	O=C(CCc1ccc2n1[B-](F)(F)[N+]1=C(c3ccc[nH]3)C=CC1=C2)NCc1ccc(C(=O)NCCOCCOCCNCC(O)COc2cccc3ccccc23)cc1 (centres unmarked) [Propranolol-3-NB590]	1.02	1.05	0.90	1.04
1.10	1.10	0.98	0.97	O=C(CCOCCOCCOCCOCCNC(=O)CCc1ccc2n1[B-](F)(F)[N+]1=C(c3ccc[nH]3)C=CC1=C2)NCCCN1CCN(C2=Nc3cc(Cl)ccc3Nc3ccccc32)CC1 [Clozapine-a-2-NB590]	–	–	–	–
